Data published in PubChem BioAssay AID1963858 (Molecular Pharmacology Branch, DTP, NCI, 2024).

Test system: HOP-62 multicell spheroids with HUVEC/MSC, viability
Assay: Anticancer human tumor HOP-62 cell line growth inhibition [KRAS2];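 note: viability read after a week of compound exposure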;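 for viability, T/C: 100% = DMSO vehicle-treated spheroids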
Conditions: for IC50: curve of first compound; for viability, T/C: stronger effect = lower value
Summary of the method: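 KRAS-mutant tumor cells were grown as spheroids with HUVEC endothelial cells and human MSCs as stroma. Targeted agents were tested alone and with KRAS pathway inhibitors. Doses started at or near clinical Cmax, or 10 microM, descending half-log.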

[1] = second compound 0.1 µM, first compound 0.0316 µM
[2] = second compound 0.1 µM, first compound 0.1 µM
[3] = second compound 0.1 µM, first compound 0.316 µM
[4] = second compound 0.1 µM, first compound 1 µM
[5] = second compound 0.1 µM, first compound 3.16 µM
[6] = second compound 0.1 µM, first compound 10 µM
[7] = second compound 0.316 µM, first compound 0.0316 µM
[8] = second compound 0.316 µM, first compound 0.1 µM
[9] = second compound 0.316 µM, first compound 0.316 µM
[10] = second compound 0.316 µM, first compound 1 µM
[11] = second compound 0.316 µM, first compound 3.16 µM
[12] = second compound 0.316 µM, first compound 10 µM
[13] = second compound 1 µM, first compound 0.0316 µM
[14] = second compound 1 µM, first compound 0.1 µM
[15] = second compound 1 µM, first compound 0.316 µM
[16] = second compound 1 µM, first compound 1 µM
[17] = second compound 1 µM, first compound 3.16 µM
[18] = second compound 1 µM, first compound 10 µM
[19] = second compound 3.16 µM, first compound 0.0316 µM
[20] = second compound 3.16 µM, first compound 0.1 µM
[21] = second compound 3.16 µM, first compound 0.316 µM
[22] = second compound 3.16 µM, first compound 1 µM
[23] = second compound 3.16 µM, first compound 3.16 µM
[24] = second compound 3.16 µM, first compound 10 µM
[25] = second compound 10 µM, first compound 0.0316 µM
[26] = second compound 10 µM, first compound 0.1 µM
[27] = second compound 10 µM, first compound 0.316 µM
[28] = second compound 10 µM, first compound 1 µM
[29] = second compound 10 µM, first compound 3.16 µM
[30] = second compound 10 µM, first compound 10 µM
[31] = second compound 0.0316 µM, first compound 0.0316 µM
[32] = second compound 0.0316 µM, first compound 0.1 µM
[33] = second compound 0.0316 µM, first compound 0.316 µM
[34] = second compound 0.0316 µM, first compound 1 µM
[35] = second compound 0.0316 µM, first compound 3.16 µM

COc1cc(Nc2ncc3c(n2)-c2ccc(Cl)cc2C(c2c(F)cccc2OC)=NC3)ccc1C(=O)O + COc1cc2nc(C)nc(NC(C)c3cc(N)cc(C(F)(F)F)c3)c2cc1OC1CCOC1
IC50 (second compound 0.1 µM): 0.237 µM
IC50 (second compound 0.316 µM): 0.124 µM
IC50 (second compound 1 µM): < 0.0316 µM
IC50 (second compound 3.16 µM): < 0.0316 µM
IC50 (second compound 10 µM): < 0.0316 µM
viability, T/C [1]: 58%
viability, T/C [2]: 61.3%
viability, T/C [3]: 43.1%
viability, T/C [4]: 39.1%
viability, T/C [5]: 25.6%
viability, T/C [6]: 19.1%
viability, T/C [7]: 53.7%
viability, T/C [8]: 50%
viability, T/C [9]: 44%
viability, T/C [10]: 41.8%
viability, T/C [11]: 23.5%
viability, T/C [12]: 16.1%
viability, T/C [13]: 44.8%
viability, T/C [14]: 42.4%
viability, T/C [15]: 35.7%
viability, T/C [16]: 30.5%
viability, T/C [17]: 23.8%
viability, T/C [18]: 16.7%
viability, T/C [19]: 35.5%
viability, T/C [20]: 31.4%
viability, T/C [21]: 28.8%
viability, T/C [22]: 25.1%
viability, T/C [23]: 19.7%
viability, T/C [24]: 13.2%
viability, T/C [25]: 32.8%
viability, T/C [26]: 28.6%
viability, T/C [27]: 30.9%
viability, T/C [28]: 29.1%
viability, T/C [29]: 18%
viability, T/C [30]: 8.97%

O=C(c1cc(Cc2n[nH]c(=O)c3ccccc23)ccc1F)N1CCN(C(=O)C2CC2)CC1 + COc1cc2nc(C)nc(NC(C)c3cc(N)cc(C(F)(F)F)c3)c2cc1OC1CCOC1
IC50 (second compound 0.1 µM): > 10 µM
IC50 (second compound 0.316 µM): 7.02 µM
IC50 (second compound 1 µM): > 10 µM
IC50 (second compound 3.16 µM): 4.69 µM
IC50 (second compound 10 µM): 0.0974 µM
viability, T/C [1]: 99.5%
viability, T/C [2]: 102%
viability, T/C [3]: 106%
viability, T/C [4]: 102%
viability, T/C [5]: 85.1%
viability, T/C [6]: 52.7%
viability, T/C [7]: 90.8%
viability, T/C [8]: 85.6%
viability, T/C [9]: 83.3%
viability, T/C [10]: 92.3%
viability, T/C [11]: 67.9%
viability, T/C [12]: 42%
viability, T/C [13]: 102%
viability, T/C [14]: 98.2%
viability, T/C [15]: 93.4%
viability, T/C [16]: 94.6%
viability, T/C [17]: 85.4%
viability, T/C [18]: 50.5%
viability, T/C [19]: 77%
viability, T/C [20]: 61.9%
viability, T/C [21]: 64%
viability, T/C [22]: 69.3%
viability, T/C [23]: 56.3%
viability, T/C [24]: 36.1%
viability, T/C [25]: 97.5%
viability, T/C [26]: 45.3%
viability, T/C [27]: 55.5%
viability, T/C [28]: 60.9%
viability, T/C [29]: 47%
viability, T/C [30]: 35.1%

CC(=O)OC12COC1CC(O)C1(C)C(=O)C(O)C3=C(C)C(OC(=O)C(O)C(NC(=O)OC(C)(C)C)c4ccccc4)CC(O)(C(OC(=O)c4ccccc4)C21)C3(C)C (stereo not given) + C=CC(=O)N1CCN(c2nc(OCC3CCCN3C)nc3c2CCN(c2cccc4cccc(C)c24)C3)CC1CC#N
IC50 (second compound 0.0316 µM): < 0.01 µM
IC50 (second compound 0.1 µM): < 0.01 µM
IC50 (second compound 0.316 µM): < 0.01 µM
IC50 (second compound 1 µM): < 0.01 µM
IC50 (second compound 3.16 µM): < 0.01 µM
viability, T/C (second compound 0.0316 µM, first compound 0.01 µM): 31.2%
viability, T/C [31]: 26.2%
viability, T/C [32]: 26.6%
viability, T/C [33]: 28.6%
viability, T/C [34]: 30.2%
viability, T/C [35]: 35.1%
viability, T/C (second compound 0.1 µM, first compound 0.01 µM): 19.4%
viability, T/C [1]: 22.7%
viability, T/C [2]: 20.7%
viability, T/C [3]: 20.1%
viability, T/C [4]: 23.2%
viability, T/C [5]: 23.2%
viability, T/C (second compound 0.316 µM, first compound 0.01 µM): 18.7%
viability, T/C [7]: 20.1%
viability, T/C [8]: 17.5%
viability, T/C [9]: 16.9%
viability, T/C [10]: 20.2%
viability, T/C [11]: 19.9%
viability, T/C (second compound 1 µM, first compound 0.01 µM): 18.7%
viability, T/C [13]: 12.1%
viability, T/C [14]: 17.1%
viability, T/C [15]: 16.2%
viability, T/C [16]: 18.2%
viability, T/C [17]: 18.9%
viability, T/C (second compound 3.16 µM, first compound 0.01 µM): 27.7%
viability, T/C [19]: 26.9%
viability, T/C [20]: 23.2%
viability, T/C [21]: 28.5%
viability, T/C [22]: 25.5%
viability, T/C [23]: 27.6%

COC(=O)c1ccc2c(C(=Nc3ccc(N(C)C(=O)CN4CCN(C)CC4)cc3)c3ccccc3)c(O)[nH]c2c1 + C=CC(=O)N1CCN(c2nc(OCC3CCCN3C)nc3c2CCN(c2cccc4cccc(C)c24)C3)CC1CC#N
IC50 (second compound 0.0316 µM): < 0.0316 µM
IC50 (second compound 0.1 µM): < 0.0316 µM
IC50 (second compound 0.316 µM): < 0.0316 µM
IC50 (second compound 1 µM): < 0.0316 µM
IC50 (second compound 3.16 µM): < 0.0316 µM
viability, T/C [31]: 42.5%
viability, T/C [32]: 36.9%
viability, T/C [33]: 28.2%
viability, T/C [34]: 26.6%
viability, T/C [35]: 25.1%
viability, T/C (second compound 0.0316 µM, first compound 10 µM): 7.5%
viability, T/C [1]: 30%
viability, T/C [2]: 32.6%
viability, T/C [3]: 21.7%
viability, T/C [4]: 23%
viability, T/C [5]: 20.5%
viability, T/C [6]: 8.85%
viability, T/C [7]: 25.7%
viability, T/C [8]: 21.7%
viability, T/C [9]: 24.1%
viability, T/C [10]: 21.7%
viability, T/C [11]: 20%
viability, T/C [12]: 1.11%
viability, T/C [13]: 26.5%
viability, T/C [14]: 19.2%
viability, T/C [15]: 19.7%
viability, T/C [16]: 17.8%
viability, T/C [17]: 8.02%
viability, T/C [18]: 0.28%
viability, T/C [19]: 6.95%
viability, T/C [20]: 3.11%
viability, T/C [21]: 20.2%
viability, T/C [22]: 0.09%
viability, T/C [23]: 0.09%
viability, T/C [24]: 0.95%
